Assay results from PubChem BioAssay (NCI).
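96-well plates; 48 h exposure; 5 concentrations. Endpoints by linear interpolation between flanking doses. Not reached: highest tested concentration assigned. Abbreviation: GI50, concentration required for 50% inhibition of growth. Definition used: TGI = concentration required for complete inhibition of growth.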

What was measured:
Test in all cases: DTP human tumour cell line panel, 48 h
786-0 renal = system: 786-0 renal
A498 renal = system: A498 renal
A549 NSCLC = system: A549 NSCLC
ACHN renal = system: ACHN renal
BT-549 breast = system: BT-549 breast
CAKI-1 renal = system: CAKI-1 renal
CCRF-CEM leukemia = system: CCRF-CEM leukemia
COLO 205 colon = system: COLO 205 colon
DU-145 prostate = system: DU-145 prostate
EKVX NSCLC = system: EKVX NSCLC
HCC-2998 colon = system: HCC-2998 colon
HCT-116 colon = system: HCT-116 colon
HCT-15 colon = system: HCT-15 colon
HOP-62 NSCLC = system: HOP-62 NSCLC
HS 578T breast = system: HS 578T breast
HT29 colon = system: HT29 colon
IGROV1 ovarian = system: IGROV1 ovarian
K-562 leukemia = system: K-562 leukemia
KM12 colon = system: KM12 colon
LOX IMVI melanoma = system: LOX IMVI melanoma
M14 melanoma = system: M14 melanoma
MCF7 breast = system: MCF7 breast
MDA-MB-231 breast = system: MDA-MB-231 breast
MDA-MB-435 = system: MDA-MB-435
MOLT-4 leukemia = system: MOLT-4 leukemia
NCI-H226 lung = system: NCI-H226 lung
NCI-H23 lung = system: NCI-H23 lung
NCI-H460 lung = system: NCI-H460 lung
NCI-H522 lung = system: NCI-H522 lung
NCI/ADR-RES ovarian = system: NCI/ADR-RES ovarian
OVCAR-3 ovarian = system: OVCAR-3 ovarian
OVCAR-4 ovarian = system: OVCAR-4 ovarian
OVCAR-5 ovarian = system: OVCAR-5 ovarian
OVCAR-8 ovarian = system: OVCAR-8 ovarian
PC-3 prostate = system: PC-3 prostate
RPMI-8226 leukemia = system: RPMI-8226 leukemia
RXF 393 renal = system: RXF 393 renal
SF-268 CNS = system: SF-268 CNS
SF-295 CNS = system: SF-295 CNS
SF-539 CNS = system: SF-539 CNS
SK-MEL-2 melanoma = system: SK-MEL-2 melanoma
SK-MEL-28 melanoma = system: SK-MEL-28 melanoma
SK-MEL-5 melanoma = system: SK-MEL-5 melanoma
SK-OV-3 ovarian = system: SK-OV-3 ovarian
SN12C renal = system: SN12C renal
SNB-19 CNS = system: SNB-19 CNS
SNB-75 CNS = system: SNB-75 CNS
SW-620 colon = system: SW-620 colon
T-47D breast = system: T-47D breast
TK-10 renal = system: TK-10 renal
U251 CNS = system: U251 CNS
UACC-257 melanoma = system: UACC-257 melanoma
UACC-62 melanoma = system: UACC-62 melanoma
UO-31 renal = system: UO-31 renal

O=C(c1ccccc1)c1c(NCC(O)CN2CCCC2)n(Cc2ccccc2)c(=O)n(Cc2ccccc2)c1=O (stereo not drawn)
GI50 (786-0 renal): 18.9 µM | TGI (786-0 renal): 35.5 µM | GI50 (A498 renal): 2.3 µM | TGI (A498 renal): 12.7 µM | GI50 (A549 NSCLC): 32.3 µM | TGI (A549 NSCLC): > 100 µM | GI50 (ACHN renal): 22.3 µM | TGI (ACHN renal): 54.7 µM | GI50 (BT-549 breast): 13.1 µM | TGI (BT-549 breast): 27 µM | GI50 (CAKI-1 renal): 24.3 µM | TGI (CAKI-1 renal): 59 µM | GI50 (CCRF-CEM leukemia): 24.3 µM | TGI (CCRF-CEM leukemia): 63.6 µM | GI50 (COLO 205 colon): 16.2 µM | TGI (COLO 205 colon): 31.2 µM | GI50 (DU-145 prostate): 17.8 µM | TGI (DU-145 prostate): 34.7 µM | GI50 (EKVX NSCLC): 19.6 µM | TGI (EKVX NSCLC): 49.1 µM | GI50 (HCC-2998 colon): 20.5 µM | TGI (HCC-2998 colon): 36.5 µM | GI50 (HCT-116 colon): 15 µM | TGI (HCT-116 colon): 28.2 µM | GI50 (HCT-15 colon): 17 µM | TGI (HCT-15 colon): 32.2 µM | GI50 (HOP-62 NSCLC): 21.7 µM | TGI (HOP-62 NSCLC): 49.5 µM | GI50 (HS 578T breast): 16.2 µM | TGI (HS 578T breast): 37.8 µM | GI50 (HT29 colon): 17.3 µM | TGI (HT29 colon): 33.6 µM | GI50 (IGROV1 ovarian): 21.6 µM | TGI (IGROV1 ovarian): 52.8 µM | GI50 (K-562 leukemia): 23.9 µM | TGI (K-562 leukemia): 99.1 µM | GI50 (KM12 colon): 15.8 µM | TGI (KM12 colon): 31.7 µM | GI50 (LOX IMVI melanoma): 15.7 µM | TGI (LOX IMVI melanoma): 29.4 µM | GI50 (M14 melanoma): 17.5 µM | TGI (M14 melanoma): 33.9 µM | GI50 (MCF7 breast): 42.5 µM | TGI (MCF7 breast): > 100 µM | GI50 (MDA-MB-231 breast): 15.3 µM | TGI (MDA-MB-231 breast): 29.6 µM | GI50 (MDA-MB-435): 17.4 µM | TGI (MDA-MB-435): 32.8 µM | GI50 (MOLT-4 leukemia): 19.7 µM | TGI (MOLT-4 leukemia): > 100 µM | GI50 (NCI-H226 lung): 18.6 µM | TGI (NCI-H226 lung): 48.4 µM | GI50 (NCI-H23 lung): 20 µM | TGI (NCI-H23 lung): 44.1 µM | GI50 (NCI-H460 lung): 19.8 µM | TGI (NCI-H460 lung): 38.9 µM | GI50 (NCI-H522 lung): 19.8 µM | TGI (NCI-H522 lung): 35.6 µM | GI50 (NCI/ADR-RES ovarian): 19.5 µM | TGI (NCI/ADR-RES ovarian): 55.3 µM | GI50 (OVCAR-3 ovarian): 18.4 µM | TGI (OVCAR-3 ovarian): 36.2 µM | GI50 (OVCAR-4 ovarian): 23.9 µM | TGI (OVCAR-4 ovarian): 57.1 µM | GI50 (OVCAR-5 ovarian): 29.7 µM | TGI (OVCAR-5 ovarian): 82 µM | GI50 (OVCAR-8 ovarian): 18.5 µM | TGI (OVCAR-8 ovarian): 36.2 µM | GI50 (PC-3 prostate): 17.5 µM | TGI (PC-3 prostate): 36.6 µM | GI50 (RPMI-8226 leukemia): 19.3 µM | TGI (RPMI-8226 leukemia): 48.4 µM | GI50 (RXF 393 renal): 21.6 µM | TGI (RXF 393 renal): 53.3 µM | GI50 (SF-268 CNS): 19.6 µM | TGI (SF-268 CNS): 40.8 µM | GI50 (SF-295 CNS): 18 µM | TGI (SF-295 CNS): 33.7 µM | GI50 (SF-539 CNS): 19.6 µM | TGI (SF-539 CNS): 33.9 µM | GI50 (SK-MEL-2 melanoma): 20.5 µM | TGI (SK-MEL-2 melanoma): 39 µM | GI50 (SK-MEL-28 melanoma): 17.6 µM | TGI (SK-MEL-28 melanoma): 32.3 µM | GI50 (SK-MEL-5 melanoma): 12.5 µM | TGI (SK-MEL-5 melanoma): 25 µM | GI50 (SK-OV-3 ovarian): 34 µM | TGI (SK-OV-3 ovarian): > 100 µM | GI50 (SN12C renal): 19.3 µM | TGI (SN12C renal): 39.1 µM | GI50 (SNB-19 CNS): 63.4 µM | TGI (SNB-19 CNS): > 100 µM | GI50 (SNB-75 CNS): 16.9 µM | TGI (SNB-75 CNS): 47.3 µM | GI50 (SW-620 colon): 15.6 µM | TGI (SW-620 colon): 30.4 µM | GI50 (T-47D breast): 21.3 µM | TGI (T-47D breast): 45.7 µM | GI50 (TK-10 renal): 19.3 µM | TGI (TK-10 renal): 41.6 µM | GI50 (U251 CNS): 16.1 µM | TGI (U251 CNS): 29.6 µM | GI50 (UACC-257 melanoma): 21 µM | TGI (UACC-257 melanoma): 42.3 µM | GI50 (UACC-62 melanoma): 17.4 µM | TGI (UACC-62 melanoma): 33.2 µM | GI50 (UO-31 renal): 18.8 µM | TGI (UO-31 renal): 40.2 µM
